The supplement of paper PMC12137928
Where a name gives a salt, the structure may show the parent alone.

Tested on: HCT116
Settings: 72 h
How it was run: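 Four-parameter Hill fits gave IC50 and maximal efficacy. The data were CellTiter-Glo luminescence readings in HCT116 cells, normalized so that vehicle was 0% and positive control was -100%, with pattern correction afterwards.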

Row | SMILES | IC50 cell viability (ICRF193 0 nM) [µM] | IC50 cell viability (ICRF193 200 nM) [µM]
1 | CN1CCC[C@@H]1Cc1c[nH]c2ccc(CCS(=O)(=O)c3ccccc3)cc12 [Eletriptan] | > 45.8 | > 45.8
2 | O=c1oc2c(O)c(O)cc3c(=O)oc4c(O)c(O)cc1c4c23 [Ellagic acid] | > 45.8 | > 45.8
3 | COc1ccc(CN(C(=O)[C@@H](N)Cc2c(C)cc(C(N)=O)cc2C)[C@@H](C)c2ncc(-c3ccccc3)[nH]2)cc1C(=O)O [Eluxadoline] | > 45.8 | > 45.8
4 | CCC(CC)(CNC(=O)CCCO)c1cccc(OC)c1 [Embutramide] | > 45.8 | > 45.8
5 | CCOCCn1c(N2CCCN(C)CC2)nc2ccccc21 [Emedastine difumarate] | > 45.8 | > 45.8
6 | CCOC(=O)c1ccc(OCCN2C[C@H](O)[C@@H](O)[C@H](O)[C@H]2CO)cc1 [Emiglitate] | > 45.8 | > 45.8
7 | CC(C)C[C@H]1C(=O)O[C@H](Cc2ccc(N3CCOCC3)cc2)C(=O)N(C)[C@@H](CC(C)C)C(=O)O[C@H](C)C(=O)N(C)[C@@H](CC(C)C)C(=O)O[C@H](Cc2ccc(N3CCOCC3)cc2)C(=O)N(C)[C@@H](CC(C)C)C(=O)O[C@H](C)C(=O)N1C [Emodepside] | > 45.8 | > 45.8
8 | CCOc1c(N2CCOCC2)cnn(C)c1=O [Emorfazone] | > 45.8 | > 45.8
9 | Nc1nc(=O)n([C@@H]2CS[C@H](CO)O2)cc1F [Emtricitabine] | > 45.8 | > 45.8
10 | C[C@H](N[C@@H](CCc1ccccc1)C(=O)O)C(=O)N1CCC[C@H]1C(=O)O [Enalapril acid] | > 45.8 | > 45.8
11 | CCOC(=O)[C@H](CCc1ccccc1)N[C@@H](C)C(=O)N1CCC[C@H]1C(=O)O [Enalapril maleate] | > 45.8 | > 45.8
12 | CC(C)(O)CNc1nc(Nc2ccnc(C(F)(F)F)c2)nc(-c2cccc(C(F)(F)F)n2)n1 [Enasidenib] | > 45.8 | > 45.8
13 | COc1ccc(C(=O)Nc2ccccc2CCC2CCCCN2C)cc1 (stereo not given) [Encainide hydrochloride] | > 45.8 | > 45.8
14 | FC(F)OC(F)(F)C(F)Cl (stereo not given) [Enflurane] | > 45.8 | > 45.8
15 | CCCCCCCCCCCCCCCCCCCCCC(=O)Nc1ccn([C@@H]2O[C@H](CO)[C@@H](O)[C@@H]2O)c(=O)n1 [Enocitabine] | > 45.8 | > 45.8
16 | CCn1cc(C(=O)O)c(=O)c2cc(F)c(N3CCNCC3)nc21 [Enoxacin] | > 45.8 | > 45.8
17 | CSc1ccc(C(=O)c2[nH]c(=O)[nH]c2C)cc1 [Enoximone] | > 45.8 | > 45.8
18 | CCN1CCN(c2cc3c(cc2F)c(=O)c(C(=O)O)cn3C2CC2)CC1 [Enrofloxacin] | > 45.8 | > 45.8
19 | O=S(=O)(O)c1ccc2[nH]c(-c3ccccc3)nc2c1 [Ensulizole] | > 45.8 | > 45.8
20 | CCN(CC)C(=O)/C(C#N)=C/c1cc(O)c(O)c([N+](=O)[O-])c1 [Entacapone] | > 45.8 | > 45.8
21 | C=C1[C@H](CO)[C@@H](O)C[C@@H]1n1cnc2c(=O)[nH]c(N)nc21 [Entecavir (monohydrate)] | > 45.8 | > 45.8
22 | Cn1cc(C2=C(c3cn(C4CCN(Cc5ccccn5)CC4)c4ccccc34)C(=O)NC2=O)c2ccccc21 [Enzastaurin] | > 45.8 | > 45.8
23 | CC(/C=C1\SC(=S)N(CC(=O)O)C1=O)=C\c1ccccc1 [Epalrestat] | > 45.8 | > 45.8
24 | NC1=NCC2c3ccccc3Cc3ccccc3N12 (stereo not given) [Epinastine hydrochloride] | > 45.8 | > 45.8
25 | CNC[C@H](O)c1ccc(O)c(O)c1 [Epinephrine] | > 45.8 | > 45.8
26 | COc1cc(C)nc(-n2nc(C)cc2OC)n1 [Epirizole] | > 45.8 | > 45.8
27 | C[C@]12C[C@H]3S[C@H]3C[C@@H]1CC[C@@H]1[C@@H]2CC[C@]2(C)[C@@H](O)CC[C@@H]12 [Epitiostanol] | > 45.8 | > 45.8
28 | COC(=O)[C@@H]1CC2=CC(=O)CC[C@]2(C)[C@@]23O[C@@H]2C[C@@]2(C)[C@@H](CC[C@@]24CCC(=O)O4)[C@H]13 [Eplerenone] | > 45.8 | > 45.8
29 | CCCCC[C@H](O)/C=C/[C@@H]1[C@H]2C/C(=C/CCCC(=O)O)O[C@H]2C[C@H]1O [Epoprostenol sodium] | > 45.8 | > 45.8
30 | CCOC(CN1CCN(CC(C)C(=O)c2ccccc2)CC1)c1ccccc1 (stereo not given) [Eprazinone dihydrochloride] | > 45.8 | > 45.8
